The supplement of paper PMC11061612

Tests used:
Test in all cases: combination Emax (second highest fraction inhibited in the dose matrix, 72 h); higher = more inhibition; extreme values may be limits of the assay
[1] = test system: A3-KAW (B-Cell Non-Hodgkin's Lymphoma)
Outline: (§1)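 After 24 hours at 37°C and 5% CO2 in 1536-well plates, cells in DMEM/F12 or RPMI plus 10% FBS received two-drug dose matrices for 72 hours. Viability came from CellTiter-Glo 2.0 luminescence and was scaled as inhibition, anchored at 0 by vehicle wells and at 1 by blank wells. Combination Emax is taken as the second-highest inhibition in the matrix, and Bliss excess as the observed combination effect less EA + EB − EA·EB, with EA and EB the single-agent effects.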

[2] = test system: A549 (Lung Adenocarcinoma)
Outline: as §1

[3] = test system: CAL-29 (Bladder Carcinoma)
Outline: as §1

[4] = test system: CCK-81 (Colorectal Carcinoma)
Outline: as §1

[5] = test system: ECC10 (Gastric Carcinoma)
Outline: as §1

FU97 (Gastric Carcinoma) = test system: FU97 (Gastric Carcinoma)
Outline: as §1

[6] = test system: HCC1954 (Breast Carcinoma)
Outline: as §1

Hs-445 (Non-Cancerous) = test system: Hs-445 (Non-Cancerous)
Outline: as §1

IGR-37 (Melanoma) = test system: IGR-37 (Melanoma)
Outline: as §1

[7] = test system: MDST8 (Colorectal Carcinoma)
Outline: as §1

[8] = test system: NCI-H1666 (Lung Adenocarcinoma)
Outline: as §1

NCI-H2591 (Mesothelioma) = test system: NCI-H2591 (Mesothelioma)
Outline: as §1

[9] = test system: ONS-76 (Other Solid Carcinomas)
Outline: as §1

[10] = test system: OS-RC-2 (Kidney Carcinoma)
Outline: as §1

[11] = test system: PANC-10-05 (Pancreatic Carcinoma)
Outline: as §1

[12] = test system: SK-MES-1 (Squamous Cell Lung Carcinoma)
Outline: as §1

[13] = test system: SK-MG-1 (Low Grade Glioma)
Outline: as §1

[14] = test system: TT (Thyroid Gland Carcinoma)
Outline: as §1

U-2-OS (Osteosarcoma) = test system: U-2-OS (Osteosarcoma)
Outline: as §1

[15] = test system: VCaP (Prostate Carcinoma)
Outline: as §1

Cc1c2c(nn1C)CSCc1cc(n(C)n1)CSc1cc(c3ccccc3c1)OCCCc1c(C(=O)O)n(C)c3c-2c(Cl)ccc13 [AZD5991] + Cn1cnc2c(F)c(Nc3ccc(Br)cc3Cl)c(C(=O)NOCCO)cc21 [Selumetinib] (first compound max 1 µM, 7x7, partner max 3 µM)
combination Emax [1]: 1
combination Emax [2]: 0.64
combination Emax [3]: 0.677
combination Emax [4]: 0.947
combination Emax [5]: 0.669
combination Emax (FU97 (Gastric Carcinoma)): 0.411
combination Emax [6]: 0.982
combination Emax (Hs-445 (Non-Cancerous)): 0.932
combination Emax (IGR-37 (Melanoma)): 0.996
combination Emax [7]: 0.746
combination Emax [8]: 0.736
combination Emax (NCI-H2591 (Mesothelioma)): 0.27
combination Emax [9]: 0.631
combination Emax [10]: 0.238
combination Emax [11]: 0.442
combination Emax [12]: 0.435
combination Emax [13]: 0.339
combination Emax [14]: 0.339
combination Emax (U-2-OS (Osteosarcoma)): 0.331
combination Emax [15]: 0.911

COc1cccc(OCCCN)c1-c1cc(Nc2cnc(C#N)cn2)n[nH]1 [Prexasertib] + CN(C)CCCOc1ccc(-c2ccc3ncc4c(c3c2)n(C2CCOCC2)c(=O)n4C)cn1 [AZD0156] (first compound max 1 µM, 7x7, partner max 1 µM)
combination Emax [1]: 1
combination Emax [2]: 0.536
combination Emax [3]: 0.836
combination Emax [4]: 0.927
combination Emax [5]: 0.671
combination Emax (FU97 (Gastric Carcinoma)): 0.386
combination Emax [6]: 0.862
combination Emax (Hs-445 (Non-Cancerous)): 0.97
combination Emax (IGR-37 (Melanoma)): 0.912
combination Emax [7]: 0.957
combination Emax [8]: 0.35
combination Emax (NCI-H2591 (Mesothelioma)): 0.305
combination Emax [9]: 0.862
combination Emax [10]: 0.498
combination Emax [11]: 0.4
combination Emax [12]: 0.77
combination Emax [13]: 0.843
combination Emax [14]: 0.676
combination Emax (U-2-OS (Osteosarcoma)): 0.943
combination Emax [15]: 0.741

Cc1c2c(nn1C)CSCc1cc(n(C)n1)CSc1cc(c3ccccc3c1)OCCCc1c(C(=O)O)n(C)c3c-2c(Cl)ccc13 [AZD5991] + CC1(C)CCC(CN2CCN(c3ccc(C(=O)NS(=O)(=O)c4ccc(NCC5CCOCC5)c([N+](=O)[O-])c4)c(Oc4cnc5[nH]ccc5c4)c3)CC2)=C(c2ccc(Cl)cc2)C1 [Venetoclax] (first compound max 1 µM, 7x7, partner max 1 µM)
combination Emax [1]: 1
combination Emax [2]: 0.216
combination Emax [3]: 0.391
combination Emax [4]: 0.871
combination Emax [5]: 1
combination Emax (FU97 (Gastric Carcinoma)): 0.243
combination Emax [6]: 0.967
combination Emax (Hs-445 (Non-Cancerous)): 0.962
combination Emax (IGR-37 (Melanoma)): 0.282
combination Emax [7]: 0.228
combination Emax [8]: 0.242
combination Emax (NCI-H2591 (Mesothelioma)): 0.154
combination Emax [9]: 0.211
combination Emax [10]: 0.133
combination Emax [11]: 0.188
combination Emax [12]: 0.146
combination Emax [13]: 0.178
combination Emax [14]: 0.83
combination Emax (U-2-OS (Osteosarcoma)): 0.271
combination Emax [15]: 0.913
